{
  "source": "paper PMC4076210",
  "about": "“Discovery of Novel AKT Inhibitors with Enhanced Anti-Tumor Effects in Combination with the MEK Inhibitor” (PLoS ONE, 2014)",
  "assay_in_all_cases": "Kinase panel",
  "key": {"Src(1-530)(h)": {"target": "T1, Src(1-530)(h) (Homo sapiens, UniProt P12931)", "T1 construct": "purchased Millipore KinaseProfiler", "T1 sequence (P12931 1-530 limits assumed)": "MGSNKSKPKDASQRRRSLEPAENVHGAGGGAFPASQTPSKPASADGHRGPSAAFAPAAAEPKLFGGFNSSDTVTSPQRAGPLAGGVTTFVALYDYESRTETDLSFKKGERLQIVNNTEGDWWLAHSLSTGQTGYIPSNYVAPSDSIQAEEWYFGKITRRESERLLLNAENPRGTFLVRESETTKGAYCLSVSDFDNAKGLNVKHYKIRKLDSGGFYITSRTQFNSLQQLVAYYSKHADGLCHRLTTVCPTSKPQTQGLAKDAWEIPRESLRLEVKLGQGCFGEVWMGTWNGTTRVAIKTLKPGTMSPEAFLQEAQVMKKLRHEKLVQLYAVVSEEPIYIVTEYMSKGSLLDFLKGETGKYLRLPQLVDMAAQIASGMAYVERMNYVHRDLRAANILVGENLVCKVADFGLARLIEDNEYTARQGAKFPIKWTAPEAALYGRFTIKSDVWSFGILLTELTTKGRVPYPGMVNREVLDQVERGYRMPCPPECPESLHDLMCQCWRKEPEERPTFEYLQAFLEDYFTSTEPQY", "format": "biochemical"}, "BTK(h)": {"target": "T2, BTK(h) (Homo sapiens, UniProt Q06187)", "T2 construct": "purchased Millipore KinaseProfiler", "format": "biochemical"}, "MLCK(h)": {"tested_on": "MLCK(h)", "format": "biochemical, human"}, "SAPK2b(h)": {"target": "T3, SAPK2b(h) (Homo sapiens, UniProt Q15759)", "T3 construct": "purchased Millipore KinaseProfiler", "format": "biochemical"}, "SGK(h)": {"target": "T4, SGK(h) (Homo sapiens, UniProt O00141)", "T4 construct": "purchased Millipore KinaseProfiler", "T4 sequence (O00141 1-431)": "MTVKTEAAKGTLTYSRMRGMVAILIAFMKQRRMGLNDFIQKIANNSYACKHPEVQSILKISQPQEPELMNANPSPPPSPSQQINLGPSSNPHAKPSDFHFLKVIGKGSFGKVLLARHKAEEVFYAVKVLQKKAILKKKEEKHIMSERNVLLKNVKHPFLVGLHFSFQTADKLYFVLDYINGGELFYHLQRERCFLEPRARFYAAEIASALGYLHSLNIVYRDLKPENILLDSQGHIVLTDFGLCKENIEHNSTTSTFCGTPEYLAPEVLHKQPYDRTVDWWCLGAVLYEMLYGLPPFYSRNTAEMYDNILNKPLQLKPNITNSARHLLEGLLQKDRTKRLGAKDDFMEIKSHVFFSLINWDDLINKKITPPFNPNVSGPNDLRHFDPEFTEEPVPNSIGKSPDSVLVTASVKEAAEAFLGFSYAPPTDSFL", "format": "biochemical"}, "PAR-1Bα(h)": {"target": "T5, PAR-1Bα(h) (Homo sapiens, UniProt Q7KZI7)", "T5 construct": "purchased Millipore KinaseProfiler", "T5 sequence (Q7KZI7 1-725 isoform Q7KZI7-4)": "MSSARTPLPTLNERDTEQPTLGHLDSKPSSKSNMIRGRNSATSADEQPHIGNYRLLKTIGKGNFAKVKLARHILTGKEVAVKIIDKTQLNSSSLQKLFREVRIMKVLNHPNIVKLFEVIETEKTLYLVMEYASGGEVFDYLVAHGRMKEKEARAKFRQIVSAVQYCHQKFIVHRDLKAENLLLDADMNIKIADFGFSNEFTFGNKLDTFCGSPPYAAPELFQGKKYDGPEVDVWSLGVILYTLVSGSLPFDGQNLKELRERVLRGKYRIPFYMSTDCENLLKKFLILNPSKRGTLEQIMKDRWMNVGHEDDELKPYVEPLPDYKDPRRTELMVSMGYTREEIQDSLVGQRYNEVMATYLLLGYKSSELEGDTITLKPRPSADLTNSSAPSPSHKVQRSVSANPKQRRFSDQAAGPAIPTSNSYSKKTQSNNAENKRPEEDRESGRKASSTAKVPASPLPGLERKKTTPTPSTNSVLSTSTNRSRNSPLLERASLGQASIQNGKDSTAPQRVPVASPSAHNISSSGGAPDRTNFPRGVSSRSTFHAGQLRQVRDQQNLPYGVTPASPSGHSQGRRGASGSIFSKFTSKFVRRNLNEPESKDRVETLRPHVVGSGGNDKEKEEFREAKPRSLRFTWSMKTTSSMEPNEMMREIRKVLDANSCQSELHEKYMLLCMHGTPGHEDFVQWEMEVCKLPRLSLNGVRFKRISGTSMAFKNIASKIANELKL", "format": "biochemical"}, "MST1(h)": {"target": "T6, MST1(h) (Homo sapiens, UniProt Q13043)", "T6 construct": "purchased Millipore KinaseProfiler", "T6 sequence (Q13043 1-487)": "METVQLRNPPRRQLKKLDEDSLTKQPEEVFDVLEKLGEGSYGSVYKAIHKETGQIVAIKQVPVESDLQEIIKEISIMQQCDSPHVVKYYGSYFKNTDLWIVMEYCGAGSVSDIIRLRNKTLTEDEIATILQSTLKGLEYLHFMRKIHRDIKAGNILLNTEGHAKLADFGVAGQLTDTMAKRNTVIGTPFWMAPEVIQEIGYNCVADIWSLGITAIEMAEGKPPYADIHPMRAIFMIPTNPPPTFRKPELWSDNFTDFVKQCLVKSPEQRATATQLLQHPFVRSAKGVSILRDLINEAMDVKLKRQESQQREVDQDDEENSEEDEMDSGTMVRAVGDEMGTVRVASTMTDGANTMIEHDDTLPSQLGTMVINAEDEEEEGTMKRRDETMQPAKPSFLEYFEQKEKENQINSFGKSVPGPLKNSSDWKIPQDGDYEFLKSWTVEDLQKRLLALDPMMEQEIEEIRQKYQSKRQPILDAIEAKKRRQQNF", "format": "biochemical"}, "IRAK1(h)": {"target": "T7, IRAK1(h) (Homo sapiens, UniProt P51617)", "T7 construct": "purchased Millipore KinaseProfiler", "format": "biochemical"}, "CaMKIV(h)": {"target": "T8, CaMKIV(h) (Homo sapiens, UniProt Q16566)", "T8 construct": "purchased Millipore KinaseProfiler", "T8 sequence (Q16566 1-473)": "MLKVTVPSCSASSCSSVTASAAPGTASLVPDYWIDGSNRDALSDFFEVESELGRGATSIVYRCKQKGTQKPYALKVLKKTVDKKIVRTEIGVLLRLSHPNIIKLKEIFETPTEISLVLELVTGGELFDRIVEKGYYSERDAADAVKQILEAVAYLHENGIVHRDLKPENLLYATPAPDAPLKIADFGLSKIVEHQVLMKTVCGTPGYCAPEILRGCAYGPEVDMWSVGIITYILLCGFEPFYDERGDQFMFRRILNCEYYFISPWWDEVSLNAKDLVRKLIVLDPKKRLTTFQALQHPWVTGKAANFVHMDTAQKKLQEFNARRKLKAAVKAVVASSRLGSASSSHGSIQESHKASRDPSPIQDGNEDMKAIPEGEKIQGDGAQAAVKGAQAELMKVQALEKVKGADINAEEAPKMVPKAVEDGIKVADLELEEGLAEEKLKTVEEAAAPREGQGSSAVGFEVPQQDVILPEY", "format": "biochemical"}, "PAK2(h)": {"target": "T9, PAK2(h) (Homo sapiens, UniProt Q13177)", "T9 construct": "purchased Millipore KinaseProfiler", "format": "biochemical"}, "EGFR(L858R)(h)": {"target": "T10, EGFR(L858R)(h) (Homo sapiens, UniProt P00533, L858R)", "T10 construct": "purchased Millipore KinaseProfiler", "T10 sequence (P00533 25-1210 L858R)": "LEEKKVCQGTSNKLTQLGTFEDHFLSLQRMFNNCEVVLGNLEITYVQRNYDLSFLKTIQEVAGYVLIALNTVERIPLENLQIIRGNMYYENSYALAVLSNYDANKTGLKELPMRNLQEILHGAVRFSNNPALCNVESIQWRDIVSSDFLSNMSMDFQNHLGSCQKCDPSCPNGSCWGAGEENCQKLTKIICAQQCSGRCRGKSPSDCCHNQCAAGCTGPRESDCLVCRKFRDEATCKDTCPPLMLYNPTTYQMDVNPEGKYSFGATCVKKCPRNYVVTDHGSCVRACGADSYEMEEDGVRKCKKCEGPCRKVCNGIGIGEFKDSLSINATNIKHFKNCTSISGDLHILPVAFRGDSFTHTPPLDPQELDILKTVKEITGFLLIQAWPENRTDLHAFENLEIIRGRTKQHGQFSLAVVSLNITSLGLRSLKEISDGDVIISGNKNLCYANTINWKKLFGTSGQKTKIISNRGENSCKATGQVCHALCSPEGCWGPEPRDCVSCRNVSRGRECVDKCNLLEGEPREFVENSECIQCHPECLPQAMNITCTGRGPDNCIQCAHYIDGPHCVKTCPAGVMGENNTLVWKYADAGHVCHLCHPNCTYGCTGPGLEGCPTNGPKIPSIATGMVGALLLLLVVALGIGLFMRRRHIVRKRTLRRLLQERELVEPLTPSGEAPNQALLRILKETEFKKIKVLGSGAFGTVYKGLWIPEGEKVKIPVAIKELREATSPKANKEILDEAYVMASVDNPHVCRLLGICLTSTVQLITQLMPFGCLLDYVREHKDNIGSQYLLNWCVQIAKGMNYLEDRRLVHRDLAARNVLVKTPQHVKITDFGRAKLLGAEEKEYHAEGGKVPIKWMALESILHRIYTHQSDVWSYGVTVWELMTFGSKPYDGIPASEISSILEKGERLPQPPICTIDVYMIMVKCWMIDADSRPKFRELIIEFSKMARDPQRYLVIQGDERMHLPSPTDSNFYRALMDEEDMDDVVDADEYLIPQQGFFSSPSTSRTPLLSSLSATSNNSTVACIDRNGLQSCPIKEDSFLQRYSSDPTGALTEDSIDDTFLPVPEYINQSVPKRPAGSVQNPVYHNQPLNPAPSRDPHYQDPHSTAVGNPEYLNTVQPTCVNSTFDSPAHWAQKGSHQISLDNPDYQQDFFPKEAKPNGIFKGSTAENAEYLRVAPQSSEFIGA", "format": "biochemical"}, "Haspin(h)": {"target": "T11, Haspin(h) (Homo sapiens, UniProt Q8TF76)", "T11 construct": "purchased Millipore KinaseProfiler", "T11 sequence (Q8TF76 1-798)": "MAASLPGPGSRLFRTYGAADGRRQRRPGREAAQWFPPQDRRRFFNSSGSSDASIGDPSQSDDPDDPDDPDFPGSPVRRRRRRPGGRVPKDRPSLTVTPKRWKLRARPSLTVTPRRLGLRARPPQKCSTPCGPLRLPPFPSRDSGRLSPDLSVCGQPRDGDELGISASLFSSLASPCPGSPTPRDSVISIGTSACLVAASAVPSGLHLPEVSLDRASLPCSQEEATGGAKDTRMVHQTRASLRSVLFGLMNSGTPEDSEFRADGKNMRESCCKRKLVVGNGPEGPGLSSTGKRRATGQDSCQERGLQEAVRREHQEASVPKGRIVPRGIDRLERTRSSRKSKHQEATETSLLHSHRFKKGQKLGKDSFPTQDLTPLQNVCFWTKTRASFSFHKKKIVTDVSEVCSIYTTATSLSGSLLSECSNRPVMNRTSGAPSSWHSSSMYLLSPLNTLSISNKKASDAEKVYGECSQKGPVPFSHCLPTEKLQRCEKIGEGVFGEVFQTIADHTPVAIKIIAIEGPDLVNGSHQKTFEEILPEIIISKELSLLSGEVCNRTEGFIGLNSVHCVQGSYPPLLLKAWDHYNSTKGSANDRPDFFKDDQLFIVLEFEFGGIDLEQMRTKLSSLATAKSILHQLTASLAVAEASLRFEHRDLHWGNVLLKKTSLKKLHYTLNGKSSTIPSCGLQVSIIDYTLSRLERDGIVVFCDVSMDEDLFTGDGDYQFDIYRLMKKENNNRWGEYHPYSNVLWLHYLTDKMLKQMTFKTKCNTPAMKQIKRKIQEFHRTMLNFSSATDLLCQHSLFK", "format": "biochemical"}},
  "note": "Read-outs that look alike come from different tables or passages of the source.",
  "data": [
    {"smiles": "Cn1ncc(Cl)c1-c1cc(C(=O)N[C@H](CN)Cc2ccc(F)c(F)c2)oc1Cl", "note": "[GSK2141795]", "values": [
      {"measurement": "inhibition at 0.5 µM", "setting": "Src(1-530)(h); 0.5 µM, read-out: % Inhibition", "result": -30, "unit": "%"},
      {"measurement": "inhibition at 10 µM", "setting": "Src(1-530)(h); 10 µM, read-out: % Inhibition", "result": 30, "unit": "%"},
      {"measurement": "inhibition at 0.5 µM", "setting": "BTK(h); 0.5 µM, read-out: % Inhibition", "result": 7, "unit": "%"},
      {"measurement": "inhibition at 10 µM", "setting": "BTK(h); 10 µM, read-out: % Inhibition", "result": 6, "unit": "%"},
      {"measurement": "% Inhibition", "setting": "MLCK(h); 0.5 µM", "result": 5, "unit": "%"},
      {"measurement": "% Inhibition", "setting": "MLCK(h); 10 µM", "result": 58, "unit": "%"},
      {"measurement": "inhibition at 0.5 µM", "setting": "SAPK2b(h); 0.5 µM, read-out: % Inhibition", "result": -17, "unit": "%"},
      {"measurement": "inhibition at 10 µM", "setting": "SAPK2b(h); 10 µM, read-out: % Inhibition", "result": -9, "unit": "%"},
      {"measurement": "inhibition at 0.5 µM", "setting": "SGK(h); 0.5 µM, read-out: % Inhibition", "result": 47, "unit": "%"},
      {"measurement": "inhibition at 10 µM", "setting": "SGK(h); 10 µM, read-out: % Inhibition", "result": 90, "unit": "%"},
      {"measurement": "inhibition at 0.5 µM", "setting": "PAR-1Bα(h); 0.5 µM, read-out: % Inhibition", "result": 24, "unit": "%"},
      {"measurement": "inhibition at 10 µM", "setting": "PAR-1Bα(h); 10 µM, read-out: % Inhibition", "result": 83, "unit": "%"},
      {"measurement": "inhibition at 0.5 µM", "setting": "MST1(h); 0.5 µM, read-out: % Inhibition", "result": -10, "unit": "%"},
      {"measurement": "inhibition at 10 µM", "setting": "MST1(h); 10 µM, read-out: % Inhibition", "result": 25, "unit": "%"},
      {"measurement": "inhibition at 0.5 µM", "setting": "IRAK1(h); 0.5 µM, read-out: % Inhibition", "result": -19, "unit": "%"},
      {"measurement": "inhibition at 10 µM", "setting": "IRAK1(h); 10 µM, read-out: % Inhibition", "result": -4, "unit": "%"},
      {"measurement": "inhibition at 0.5 µM", "setting": "CaMKIV(h); 0.5 µM, read-out: % Inhibition", "result": -18, "unit": "%"},
      {"measurement": "inhibition at 10 µM", "setting": "CaMKIV(h); 10 µM, read-out: % Inhibition", "result": -21, "unit": "%"},
      {"measurement": "inhibition at 0.5 µM", "setting": "PAK2(h); 0.5 µM, read-out: % Inhibition", "result": 22, "unit": "%"},
      {"measurement": "inhibition at 10 µM", "setting": "PAK2(h); 10 µM, read-out: % Inhibition", "result": 25, "unit": "%"},
      {"measurement": "inhibition at 0.5 µM", "setting": "EGFR(L858R)(h); 0.5 µM, read-out: % Inhibition", "result": 3, "unit": "%"},
      {"measurement": "inhibition at 10 µM", "setting": "EGFR(L858R)(h); 10 µM, read-out: % Inhibition", "result": 24, "unit": "%"},
      {"measurement": "inhibition at 0.5 µM", "setting": "Haspin(h); 0.5 µM, read-out: % Inhibition", "result": 76, "unit": "%"},
      {"measurement": "inhibition at 10 µM", "setting": "Haspin(h); 10 µM, read-out: % Inhibition", "result": 101, "unit": "%"}
    ]},
    {"smiles": "Cn1ncc(Cl)c1-c1cc(C(=O)N[C@H](CN)Cc2cccc(F)c2)sc1Cl", "note": "[GSK2110183]", "values": [
      {"measurement": "inhibition at 0.5 µM", "setting": "Src(1-530)(h)", "result": -12, "unit": "%"},
      {"measurement": "inhibition at 10 µM", "setting": "Src(1-530)(h)", "result": 61, "unit": "%"},
      {"measurement": "inhibition at 0.5 µM", "setting": "BTK(h)", "result": 2, "unit": "%"},
      {"measurement": "inhibition at 10 µM", "setting": "BTK(h)", "result": 4, "unit": "%"},
      {"measurement": "% Inhibition", "setting": "MLCK(h); 0.5 µM", "result": 4, "unit": "%"},
      {"measurement": "% Inhibition", "setting": "MLCK(h); 10 µM", "result": 60, "unit": "%"},
      {"measurement": "inhibition at 0.5 µM", "setting": "SAPK2b(h)", "result": -8, "unit": "%"},
      {"measurement": "inhibition at 10 µM", "setting": "SAPK2b(h)", "result": -13, "unit": "%"},
      {"measurement": "inhibition at 0.5 µM", "setting": "SGK(h)", "result": 36, "unit": "%"},
      {"measurement": "inhibition at 10 µM", "setting": "SGK(h)", "result": 87, "unit": "%"},
      {"measurement": "inhibition at 0.5 µM", "setting": "PAR-1Bα(h)", "result": 15, "unit": "%"},
      {"measurement": "inhibition at 10 µM", "setting": "PAR-1Bα(h)", "result": 84, "unit": "%"},
      {"measurement": "inhibition at 0.5 µM", "setting": "MST1(h)", "result": -2, "unit": "%"},
      {"measurement": "inhibition at 10 µM", "setting": "MST1(h)", "result": 19, "unit": "%"},
      {"measurement": "inhibition at 0.5 µM", "setting": "IRAK1(h)", "result": -5, "unit": "%"},
      {"measurement": "inhibition at 10 µM", "setting": "IRAK1(h)", "result": 3, "unit": "%"},
      {"measurement": "inhibition at 0.5 µM", "setting": "CaMKIV(h)", "result": -15, "unit": "%"},
      {"measurement": "inhibition at 10 µM", "setting": "CaMKIV(h)", "result": 0, "unit": "%"},
      {"measurement": "inhibition at 0.5 µM", "setting": "PAK2(h)", "result": -2, "unit": "%"},
      {"measurement": "inhibition at 10 µM", "setting": "PAK2(h)", "result": 23, "unit": "%"},
      {"measurement": "inhibition at 0.5 µM", "setting": "EGFR(L858R)(h)", "result": 3, "unit": "%"},
      {"measurement": "inhibition at 10 µM", "setting": "EGFR(L858R)(h)", "result": 15, "unit": "%"},
      {"measurement": "inhibition at 0.5 µM", "setting": "Haspin(h)", "result": 46, "unit": "%"},
      {"measurement": "inhibition at 10 µM", "setting": "Haspin(h)", "result": 90, "unit": "%"}
    ]}
  ]
}
